Test results from patent US5684166A, “(-3-ketotetrahydrofuran-2-yl) ethanal derivatives and a method for their preparation” (Biocure Limited, priority 1993, dated 1997).

What was measured:
Assay type in all cases: cell-based
[1] = system: PC3 (Human prostate adenocarcinoma); assay: in vitro culture cell number, PC3
Source text: (§1) Substances having the structures of the synthesised target material when added to in vitro cultures of various cancer cell lines produced a dose-related cell death as indicated in the Tables below.

[2] = system: WIL2 (Human B lymphoblastoma); assay: in vitro culture cell number, WIL2
Source text: as §1

[3] = system: CaSki (Human cervical epidermoid carcinoma); assay: in vitro culture cell number, CaSki
Source text: as §1

[4] = system: HeLa (Human cervical carcinoma); assay: in vitro culture cell number, HeLa
Source text: as §1

[5] = system: WiDr (Human colon adenocarcinoma); assay: in vitro culture cell number, WiDr
Source text: as §1

[6] = system: KHOS/NP (Human osteocarcinoma); assay: in vitro culture cell number, KHOS/NP
Source text: as §1

[7] = system: G361 (Human malignant melanoma); assay: in vitro culture cell number, G361
Source text: as §1

[8] = system: MOLT4 (Human Tcell leukaemia); assay: in vitro culture cell number, MOLT4
Source text: as §1

[9] = system: PA-1 (Human ovarian teratocarcinoma); assay: in vitro culture cell number, PA-1
Source text: as §1

[10] = Homo sapiens, 2.0 μg/ml, P < 0.001, read-out: Cell No (% Control)
[11] = Homo sapiens, 5.0 μg/ml, P < 0.001, read-out: Cell No (% Control)
[12] = Homo sapiens, 7.5 μg/ml, P < 0.001, read-out: Cell No (% Control)
[13] = Homo sapiens, 10.0 μg/ml, P < 0.001, read-out: Cell No (% Control)
[14] = Homo sapiens, 20.0 μg/ml, P < 0.001, read-out: Cell No (% Control)

Structure (SMILES): O=CCC1OCCC1=O (racemic) [Compound 8, (3-ketotetrahydrofuran-2-yl)ethanal]
- activity at 2 µg/mL ([1]; Homo sapiens, PC-3, PC3, 2.0 μg/ml, P < 0.05, read-out: Cell No (% Control)): 87.9%
- activity at 5 µg/mL ([1]; Homo sapiens, PC-3, PC3, 5.0 μg/ml, P < 0.001, read-out: Cell No (% Control)): 67.4%
- activity at 7.5 µg/mL ([1]; Homo sapiens, PC-3, PC3, 7.5 μg/ml, P < 0.001, read-out: Cell No (% Control)): 32.9%
- activity at 10 µg/mL ([1]; Homo sapiens, PC-3, PC3, 10.0 μg/ml, P < 0.001, read-out: Cell No (% Control)): 9.3%
- activity at 20 µg/mL ([1]; Homo sapiens, PC-3, PC3, 20.0 μg/ml, P < 0.001, read-out: Cell No (% Control)): 5.9%
- Cell No ([1]; PC3, 2.0 μg/ml): 5908
- Cell No ([1]; PC3, 5.0 μg/ml): 4532
- Cell No ([1]; PC3, 7.5 μg/ml): 2211
- Cell No ([1]; PC3, 10.0 μg/ml): 627
- Cell No ([1]; PC3, 20.0 μg/ml): 399
- activity at 0.5 µg/mL ([2]; Homo sapiens, WIL2, 0.5 μg/ml, P < 0.001, read-out: Cell No (% Control)): 85.3%
- activity at 1 µg/mL ([2]; Homo sapiens, WIL2, 1.0 μg/ml, P < 0.001, read-out: Cell No (% Control)): 58.8%
- activity at 1.5 µg/mL ([2]; Homo sapiens, WIL2, 1.5 μg/ml, P < 0.001, read-out: Cell No (% Control)): 24.9%
- activity at 2 µg/mL ([2]; Homo sapiens, WIL2, 2.0 μg/ml, P < 0.001, read-out: Cell No (% Control)): 16.1%
- activity at 5 µg/mL ([2]; Homo sapiens, WIL2, 5.0 μg/ml, P < 0.001, read-out: Cell No (% Control)): 7.1%
- Cell No ([2]; WIL2, 0.5 μg/ml): 8431
- Cell No ([2]; WIL2, 1.0 μg/ml): 5810
- Cell No ([2]; WIL2, 1.5 μg/ml): 2459
- Cell No ([2]; WIL2, 2.0 μg/ml): 1591
- Cell No ([2]; WIL2, 5.0 μg/ml): 705
- Cell No ([3]; 2.0 μg/ml): 4401
- Cell No ([3]; 5.0 μg/ml): 4617
- Cell No ([3]; 7.5 μg/ml): 3495
- Cell No ([3]; 10.0 μg/ml): 2800
- Cell No ([3]; 20.0 μg/ml): 234
- activity at 2 µg/mL ([3]; Homo sapiens, Ca-Ski, 2.0 μg/ml, P < 0.001, read-out: Cell No (% Control)): 89.1%
- activity at 5 µg/mL ([3]; Homo sapiens, Ca-Ski, 5.0 μg/ml, read-out: Cell No (% Control)): 93.5%
- activity at 7.5 µg/mL ([3]; Homo sapiens, Ca-Ski, 7.5 μg/ml, P < 0.001, read-out: Cell No (% Control)): 70.8%
- activity at 10 µg/mL ([3]; Homo sapiens, Ca-Ski, 10.0 μg/ml, P < 0.001, read-out: Cell No (% Control)): 56.7%
- activity at 20 µg/mL ([3]; Homo sapiens, Ca-Ski, 20.0 μg/ml, P < 0.001, read-out: Cell No (% Control)): 4.7%
- Cell No ([4]; 0.5 μg/ml): 12165
- Cell No ([4]; 1.0 μg/ml): 10932
- Cell No ([4]; 1.5 μg/ml): 7453
- Cell No ([4]; 2.0 μg/ml): 4675
- Cell No ([4]; 5.0 μg/ml): 201
- activity at 0.5 µg/mL ([4]; Homo sapiens, 0.5 μg/ml, P < 0.001, read-out: Cell No (% Control)): 83.9%
- activity at 1 µg/mL ([4]; Homo sapiens, 1.0 μg/ml, P < 0.001, read-out: Cell No (% Control)): 75.4%
- activity at 1.5 µg/mL ([4]; Homo sapiens, 1.5 μg/ml, P < 0.001, read-out: Cell No (% Control)): 51.4%
- activity at 2 µg/mL [4, 10]: 32.2%
- activity at 5 µg/mL [4, 11]: 1.4%
- Cell No ([5]; 2.0 μg/ml): 5845
- Cell No ([5]; 5.0 μg/ml): 5762
- Cell No ([5]; 7.5 μg/ml): 5097
- Cell No ([5]; 10.0 μg/ml): 3826
- Cell No ([5]; 20.0 μg/ml): 178
- activity at 2 µg/mL ([5]; Homo sapiens, 2.0 μg/ml, P < 0.05, read-out: Cell No (% Control)): 90.9%
- activity at 5 µg/mL ([5]; Homo sapiens, 5.0 μg/ml, P < 0.05, read-out: Cell No (% Control)): 89.6%
- activity at 7.5 µg/mL [5, 12]: 79.3%
- activity at 10 µg/mL [5, 13]: 59.5%
- activity at 20 µg/mL [5, 14]: 2.8%
- Cell No ([6]; 2.0 μg/ml): 9442
- Cell No ([6]; 5.0 μg/ml): 6356
- Cell No ([6]; 7.5 μg/ml): 2469
- Cell No ([6]; 10.0 μg/ml): 862
- Cell No ([6]; 20.0 μg/ml): 380
- activity at 2 µg/mL [6, 10]: 84.5%
- activity at 5 µg/mL [6, 11]: 56.9%
- activity at 7.5 µg/mL [6, 12]: 22.1%
- activity at 10 µg/mL [6, 13]: 7.7%
- activity at 20 µg/mL [6, 14]: 3.4%
- Cell No ([7]; G361, 2.0 μg/ml): 1679
- Cell No ([7]; G361, 5.0 μg/ml): 314
- Cell No ([7]; G361, 7.5 μg/ml): 159
- Cell No ([7]; G361, 10.0 μg/ml): 142
- Cell No ([7]; G361, 20.0 μg/ml): 230
- activity at 2 µg/mL ([7]; Homo sapiens, G-361, G361, 2.0 μg/ml, P < 0.001, read-out: Cell No (% Control)): 35.8%
- activity at 5 µg/mL ([7]; Homo sapiens, G-361, G361, 5.0 μg/ml, P < 0.001, read-out: Cell No (% Control)): 6.7%
- activity at 7.5 µg/mL ([7]; Homo sapiens, G-361, G361, 7.5 μg/ml, P < 0.001, read-out: Cell No (% Control)): 3.4%
- activity at 10 µg/mL ([7]; Homo sapiens, G-361, G361, 10.0 μg/ml, P < 0.001, read-out: Cell No (% Control)): 3%
- activity at 20 µg/mL ([7]; Homo sapiens, G-361, G361, 20.0 μg/ml, P < 0.001, read-out: Cell No (% Control)): 4.9%
- activity at 0.5 µg/mL ([8]; Homo sapiens, MOLT-4, MOLT4, 0.5 μg/ml, P < 0.001, read-out: Cell No (% Control)): 91.2%
- activity at 1 µg/mL ([8]; Homo sapiens, MOLT-4, MOLT4, 1.0 μg/ml, P < 0.001, read-out: Cell No (% Control)): 78.8%
- activity at 1.5 µg/mL ([8]; Homo sapiens, MOLT-4, MOLT4, 1.5 μg/ml, P < 0.001, read-out: Cell No (% Control)): 53.7%
- activity at 2 µg/mL ([8]; Homo sapiens, MOLT-4, MOLT4, 2.0 μg/ml, P < 0.001, read-out: Cell No (% Control)): 34.2%
- activity at 5 µg/mL ([8]; Homo sapiens, MOLT-4, MOLT4, 5.0 μg/ml, P < 0.001, read-out: Cell No (% Control)): 12.4%
- Cell No ([8]; MOLT4, 0.5 μg/ml): 4543
- Cell No ([8]; MOLT4, 1.0 μg/ml): 3920
- Cell No ([8]; MOLT4, 1.5 μg/ml): 2674
- Cell No ([8]; MOLT4, 2.0 μg/ml): 1701
- Cell No ([8]; MOLT4, 5.0 μg/ml): 619
- activity at 0.5 µg/mL ([9]; Homo sapiens, PA-1, 0.5 μg/ml, P < 0.001, read-out: Cell No (% Control)): 84.3%
- activity at 1 µg/mL ([9]; Homo sapiens, PA-1, 1.0 μg/ml, P < 0.001, read-out: Cell No (% Control)): 84.9%
- activity at 1.5 µg/mL ([9]; Homo sapiens, PA-1, 1.5 μg/ml, P < 0.001, read-out: Cell No (% Control)): 77.3%
- activity at 2 µg/mL ([9]; Homo sapiens, PA-1, 2.0 μg/ml, P < 0.001, read-out: Cell No (% Control)): 72.4%
- activity at 5 µg/mL ([9]; Homo sapiens, PA-1, 5.0 μg/ml, P < 0.001, read-out: Cell No (% Control)): 20.9%
- Cell No ([9]; PA-1, 0.5 μg/ml): 11346
- Cell No ([9]; PA-1, 1.0 μg/ml): 11276
- Cell No ([9]; PA-1, 1.5 μg/ml): 10338
- Cell No ([9]; PA-1, 2.0 μg/ml): 9678
- Cell No ([9]; PA-1, 5.0 μg/ml): 2729
